The target in experiment [1] is T1, Interleukin-23 receptor (Homo sapiens, UniProt Q5VWK5).
T1 sequence (Q5VWK5 whole entry): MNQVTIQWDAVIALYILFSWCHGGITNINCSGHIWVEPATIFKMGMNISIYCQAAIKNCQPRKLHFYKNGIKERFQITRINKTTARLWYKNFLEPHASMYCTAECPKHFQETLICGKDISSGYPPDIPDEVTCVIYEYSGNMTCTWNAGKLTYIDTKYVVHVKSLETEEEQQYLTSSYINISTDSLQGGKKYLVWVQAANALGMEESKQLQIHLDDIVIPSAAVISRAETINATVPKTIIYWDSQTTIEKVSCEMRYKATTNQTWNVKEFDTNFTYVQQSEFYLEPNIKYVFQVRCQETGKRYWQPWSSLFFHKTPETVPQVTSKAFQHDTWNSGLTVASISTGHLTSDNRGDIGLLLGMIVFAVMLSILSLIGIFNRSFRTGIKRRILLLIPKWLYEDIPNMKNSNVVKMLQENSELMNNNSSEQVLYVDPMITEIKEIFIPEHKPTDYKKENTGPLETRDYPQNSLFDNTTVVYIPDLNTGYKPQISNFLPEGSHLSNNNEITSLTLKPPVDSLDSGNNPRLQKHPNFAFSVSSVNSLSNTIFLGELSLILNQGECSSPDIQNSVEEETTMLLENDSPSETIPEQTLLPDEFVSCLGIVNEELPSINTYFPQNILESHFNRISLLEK
Nature of the experiment: Inhibition of interleukin-23 binding to human interleukin-23 receptor incubated for 2 hrs by competitive binding ELISA. In general terms: An ELISA detects its analyte on a solid surface through an enzyme-linked reagent.

The target of experiment [2] is T1, Interleukin-23 receptor. Nature of the experiment: Inhibition of interleukin-23 receptor in human DB cells assessed as reduction in IL-23-stimulated STAT3 phosphorylation incubated for 30 mins by HTRF assay. The experiment is classed as cell-based. (TR-FRET usually uses a lanthanide donor and a delayed reading to cut background.)
A short description of experiment [3]: Inhibition of interleukin-23 binding to rat interleukin-23 receptor incubated for 2 hrs by competitive binding ELISA.

Each structure is given as a SMILES string. Where a SMILES comes first, the peptide text is derived from it. [ ]: non-standard residue; d: D form. hLeu = CC(C)CC[C@H](N)C(=O)O

Regarding `COc1ccc(C[C@H](NC(=O)[C@@H](NC(=O)[C@H](CCC(N)=O)NC(=O)[C@H](Cc2c[nH]c3ccccc23)NC(=O)[C@@H](NC(=O)[C@H](CCC(N)=O)NC(=O)[C@@H](NCN2C(=O)COCC2=O)C(C)(C)S)[C@@H](C)O)C(C)(C)S)C(=O)N[C@@H](Cc2ccc3ccccc3c2)C(=O)N[C@@](C)(CCCCN)C(=O)N[C@@H](CCCCNC(C)=O)C(=O)N[C@@H](CC(N)=O)C(=O)NCC(N)=O)cc1`, the values for the IC50 (at Interleukin-23 receptor [1]; at Interleukin-23 receptor [2]; in experiment [3]) were 25 to 100 nM, 10 to 25 nM and 25 to 100 nM, respectively. As to `CC(=O)N[C@@H](CS)C(=O)N[C@@H](CCC(N)=O)C(=O)N[C@H](C(=O)N[C@@H](Cc1c[nH]c2ccccc12)C(=O)N[C@@H](CCC(N)=O)C(=O)N[C@@H](CS)C(=O)N[C@@H](Cc1ccc(O)cc1)C(=O)N[C@@H](Cc1c[nH]c2ccccc12)C(=O)N[C@@](C)(CC(C)C)C(=O)N[C@@H](CCC(=O)O)C(=O)N[C@@H](CC(N)=O)C(=O)NCC(N)=O)[C@@H](C)O`, the IC50 (usually the concentration that gives 50% inhibition) was determined as 5 nM on Interleukin-23 receptor [2] and 27 nM in experiment [3]. As to `CC(=O)N[C@@H](CS)C(=O)N[C@@H](CCCNC(N)=O)C(=O)N[C@H](C(=O)N[C@@H](Cc1c[nH]c2ccccc12)C(=O)N[C@@H](CCC(N)=O)C(=O)N[C@@H](CS)C(=O)N[C@@H](Cc1ccc(O)cc1)C(=O)N[C@@H](Cc1c[nH]c2ccccc12)C(=O)N[C@@H](CCCNC(=N)N)C(=O)N[C@H](C(=O)N[C@@H](Cc1ccccc1)C(=O)NCC(=O)NCCC(=O)N[C@H](CCCCN)C(N)=O)C(C)C)[C@@H](C)O`, the IC50 on Interleukin-23 receptor [1] was 50 nM; in experiment [3], 76 nM. With `CC(=O)NCCCC[C@H](NC(=O)[C@H](CCC(C)C)NC(=O)[C@H](Cc1c[nH]c2ccccc12)NC(=O)[C@H](Cc1ccc(O)cc1)NC(=O)[C@H](CS)NC(=O)[C@H](CCC(N)=O)NC(=O)[C@H](Cc1c[nH]c2ccccc12)NC(=O)[C@@H](NC(=O)[C@H](CCC(N)=O)NC(=O)[C@H](CS)NC(C)=O)[C@@H](C)O)C(=O)N[C@@H](CC(N)=O)C(=O)NCC(N)=O`, the IC50 came to 3 nM at Interleukin-23 receptor [2] and 32 nM in experiment [3]. Taken in the same sequence, the figures for `CC(=O)N[C@@H](CS)C(=O)N[C@@H](CCCNC(=N)N)C(=O)N[C@H](C(=O)N[C@@H](Cc1c[nH]c2ccccc12)C(=O)N[C@@H](CCC(N)=O)C(=O)N[C@@H](CS)C(=O)N[C@@H](Cc1ccc(O)cc1)C(=O)N[C@@H](Cc1c[nH]c2ccccc12)C(=O)N[C@@H](CCCNC(=N)N)C(=O)N[C@@H](CCC(=O)O)C(=O)N[C@@H](Cc1ccc(O)cc1)C(=O)NCC(=O)N[C@@H](C)C(=O)N[C@H](CCCCN)C(N)=O)[C@@H](C)O` were 8 nM and 80 nM.

Regarding `CC(=O)N[C@@H](CS)C(=O)N[C@@H](CCC(N)=O)C(=O)N[C@H](C(=O)N[C@@H](Cc1c[nH]c2ccccc12)C(=O)N[C@@H](CCC(N)=O)C(=O)N[C@@H](CS)C(=O)N[C@@H](Cc1ccc(O)cc1)C(=O)N[C@@H](Cc1c[nH]c2ccccc12)C(=O)N[C@@H](CCC(C)C)C(=O)N[C@@H](CCC(=O)O)C(=O)N[C@@H](CC(N)=O)C(=O)NCC(=O)NCC(N)=O)[C@@H](C)O`, the IC50 at Interleukin-23 receptor [1] was 61 to 362 nM; in experiment [3], 140 nM. Compound `CC(=O)N[C@@H](CS)C(=O)N[C@@H](CCC(N)=O)C(=O)N[C@H](C(=O)N[C@@H](Cc1c[nH]c2ccccc12)C(=O)N[C@@H](CCC(N)=O)C(=O)N[C@@H](CS)C(=O)N[C@@H](Cc1ccc(O)cc1)C(=O)N[C@@H](Cc1c[nH]c2ccccc12)C(=O)N[C@@H](Cc1cccnc1)C(=O)N[C@@H](CCC(=O)O)C(=O)N[C@@H](CC(N)=O)C(=O)NCC(N)=O)[C@@H](C)O` returned an IC50 in experiment [3] of 20 nM. Take `CC(=O)N[C@@H](CS)C(=O)N[C@@H](CO)C(=O)N[C@H](C(=O)N[C@@H](Cc1c[nH]c2ccccc12)C(=O)N[C@@H](CCC(=O)O)C(=O)N[C@@H](CS)C(=O)N[C@@H](Cc1ccc(O)cc1)C(=O)N[C@@H](Cc1c[nH]c2ccccc12)C(=O)N[C@@H](Cc1cnc[nH]1)C(=O)N[C@H](C(=O)N[C@@H](Cc1ccc(O)cc1)C(=O)NCC(N)=O)[C@@H](C)O)[C@@H](C)O`: the IC50 in experiment [3] came out at 286 nM. The compound `CC(=O)N[C@@H](CS)C(=O)N[C@@H](CCC(N)=O)C(=O)N[C@H](C(=O)N[C@@H](Cc1c[nH]c2ccccc12)C(=O)N[C@@H](CCC(N)=O)C(=O)N[C@@H](CS)C(=O)N[C@@H](Cc1ccc2ccccc2c1)C(=O)N[C@@H](Cc1c[nH]c2ccccc12)C(=O)N[C@@H](CCC(C)C)C(=O)N[C@@H](CCC(=O)O)C(=O)N[C@@H](CC(N)=O)C(=O)NCC(N)=O)[C@@H](C)O` returned an IC50 in experiment [3] of 73 nM.

The compound `CC(=O)N[C@@H](CS)C(=O)N[C@@H](CCCNC(=N)N)C(=O)N[C@H](C(=O)N[C@@H](Cc1c[nH]c2ccccc12)C(=O)N[C@@H](CCC(N)=O)C(=O)N[C@@H](CS)C(=O)N[C@@H](Cc1ccc(O)cc1)C(=O)N[C@@H](Cc1c[nH]c2ccccc12)C(=O)N[C@@H](CC(C)C)C(=O)N[C@@H](CCCNC(=N)N)C(=O)N[C@@H](CC(C)C)C(=O)NCC(=O)N[C@@H](CC(=O)O)C(=O)N[C@@H](CCC(=O)O)C(=O)NCC(N)=O)[C@@H](C)O` (Ac-CRTWQCYWLRLGDEG-NH2) came in with an IC50 in experiment [3] of 483 nM. On to `CC(=O)N[C@@H](CS)C(=O)N[C@@H](CCCNC(=N)N)C(=O)N[C@H](C(=O)N[C@@H](Cc1c[nH]c2ccccc12)C(=O)N[C@@H](CCC(N)=O)C(=O)N[C@@H](CS)C(=O)N[C@@H](Cc1ccc(O)cc1)C(=O)N[C@@H](Cc1c[nH]c2ccccc12)C(=O)N[C@@H](CCCNC(=N)N)C(=O)N[C@@H](CCC(=O)O)C(=O)N[C@@H](CC(N)=O)C(=O)NCC(=O)N[C@@H](C)C(=O)N[C@H](CCCCN)C(N)=O)[C@@H](C)O`, for which the IC50 in experiment [3] was 86 nM. Still for that read-out and setting: to `CC(=O)N[C@@H](CS)C(=O)N[C@@H](C)C(=O)N[C@@H](CC(=O)O)C(=O)N[C@@H](Cc1c[nH]c2ccccc12)C(=O)N[C@H](C(=O)N[C@@H](CS)C(=O)N[C@@H](Cc1ccc(O)cc1)C(=O)N[C@@H](Cc1c[nH]c2ccccc12)C(=O)N[C@@H](CCCNC(=N)N)C(=O)N[C@@H](CCCCN)C(=O)N[C@@H](Cc1ccccc1)C(=O)NCC(=O)NCCC(=O)N[C@H](CCCCN)C(N)=O)C(C)C` belongs 33 nM; to `CC(=O)N[C@@H](CS)C(=O)N[C@@H](CCC(N)=O)C(=O)N[C@H](C(=O)N[C@@H](Cc1c[nH]c2ccccc12)C(=O)N[C@@H](CCC(N)=O)C(=O)N[C@@H](CS)C(=O)N[C@@H](Cc1ccc(O)cc1)C(=O)N[C@@H](Cc1c[nH]c2ccccc12)C(=O)N[C@@H](CCC(C)C)C(=O)N[C@@H](CCC(=O)O)C(=O)N[C@@H](CC(N)=O)C(=O)N[C@@H](Cc1ccccc1)C(N)=O)[C@@H](C)O`, 182 nM. Regarding `CC(=O)N[C@@H](CS)C(=O)N[C@@H](CO)C(=O)N[C@H](C(=O)N[C@@H](Cc1c[nH]c2ccccc12)C(=O)N[C@@H](CCC(N)=O)C(=O)N[C@@H](CS)C(=O)N[C@@H](Cc1ccc(O)cc1)C(=O)N[C@@H](Cc1c[nH]c2ccccc12)C(=O)N[C@@H](CC(C)C)C(=O)N[C@@H](CCCCN)C(=O)N[C@@H](Cc1cnc[nH]1)C(=O)NCC(=O)NCC(=O)N[C@@H](CCC(=O)O)C(N)=O)[C@@H](C)O` (Ac-CSTWQCYWLKHGGE-NH2), the IC50 was determined as 2 nM at Interleukin-23 receptor [2] and 24 nM in experiment [3]. In experiment [3], `CC(=O)N[C@@H](CS)C(=O)N[C@@H](CCC(N)=O)C(=O)N[C@H](C(=O)N[C@@H](Cc1c[nH]c2ccccc12)C(=O)N[C@@H](CCC(N)=O)C(=O)N[C@@H](CS)C(=O)N[C@@H](Cc1ccc(O)cc1)C(=O)N[C@@H](Cc1c[nH]c2ccccc12)C(=O)N[C@@H](CCC(C)C)C(=O)N[C@@H](CCC(=O)O)C(=O)N[C@@H](CCC(=O)O)C(=O)NCC(N)=O)[C@@H](C)O` (Ac-CQTWQCYW[hLeu]EEG-NH2) gave an IC50 of 53 nM.

`CC(=O)N[C@@H](Cc1ccccc1)C(=O)N[C@@H](CS)C(=O)N[C@@H](CCC(N)=O)C(=O)N[C@H](C(=O)N[C@@H](Cc1c[nH]c2ccccc12)C(=O)N[C@@H](CCC(N)=O)C(=O)N[C@@H](CS)C(=O)N[C@@H](Cc1ccc(O)cc1)C(=O)N[C@@H](Cc1c[nH]c2ccccc12)C(=O)N[C@@H](CCC(C)C)C(=O)N[C@@H](CCC(=O)O)C(=O)N[C@@H](CC(N)=O)C(=O)NCC(N)=O)[C@@H](C)O` registered an IC50 in experiment [3] of 25 nM. Still for that read-out and setting: the result for `CC(=O)N[C@@H](CS)C(=O)N[C@@H](CCC(N)=O)C(=O)N[C@H](C(=O)N[C@@H](Cc1c[nH]c2ccccc12)C(=O)N[C@@H](CCC(N)=O)C(=O)N[C@@H](CS)C(=O)N[C@@H](Cc1ccc(O)cc1)C(=O)N[C@@H](Cc1c[nH]c2ccccc12)C(=O)N[C@@H](CCC(C)C)C(=O)N[C@@H](CCC(=O)O)C(=O)N1CCC[C@H]1C(=O)NCC(N)=O)[C@@H](C)O` reads 140 nM. For `CC(=O)N[C@@H](CS)C(=O)N(C)[C@@H](CCC(N)=O)C(=O)N[C@H](C(=O)N[C@@H](Cc1c[nH]c2ccccc12)C(=O)N[C@@H](CCC(N)=O)C(=O)N[C@@H](CS)C(=O)N[C@@H](Cc1ccc(O)cc1)C(=O)N[C@@H](Cc1c[nH]c2ccccc12)C(=O)N[C@@H](CCCNC(=N)N)C(=O)N[C@H](C(=O)N[C@@H](Cc1ccccc1)C(=O)NCC(=O)NCCC(=O)N[C@H](CCCCN)C(N)=O)C(C)C)[C@@H](C)O`, in experiment [3], the IC50 is 85 nM.

The values above are taken from ChEMBL document CHEMBL4417631, “Oral peptide inhibitors of interleukin-23 receptor and their use to treat inflammatory bowel diseases” (2017).
